The record followed here is PubChem BioAssay AID296 (DTP/NCI, 2004).

Inconclusive results are not listed.

This test concerns MX-1 breast xenograft, nude mice, tumor weight T/C. The test is described as follows: NCI In Vivo Anticancer Drug Screen. Data for tumor model Human Mammary Carcinoma MX-1 Xenograft (intrarenal inoculation) in NU/NU Swiss (nude) mice. The note with it: endpoint: mean tumor weight change, higher = larger tumour. The essentials:
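Activity is given as a ratio, with each measurement in the compound-treated arm divided by the matching measurement in vehicle-dosed controls. Tumour size or survival serves as the measured parameter.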

With `CO[C@H](/C(C)=C/C=C/C(C)=C/c1coc(C)n1)[C@H](C)[C@H]1C[C@@H](O)[C@@]2(C)O[C@H]2/C=C/[C@@H](C)[C@@H]2C[C@@H](CC(=O)O2)C[C@H]2O[C@@H]2C(=O)O1`, the T/C (dose: 0.25 mg/kg/injection, schedule: Q04DX003 (ip), vehicle: Klucel (hydroxypropylcellulose) (HPC)) is 34 % of control; the T/C (dose: 0.5 mg/kg/injection, schedule: Q04DX003 (ip), vehicle: Klucel (hydroxypropylcellulose) (HPC)) is 2 % of control; the T/C (dose: 1.0 mg/kg/injection, schedule: Q04DX003 (ip), vehicle: Klucel (hydroxypropylcellulose) (HPC)) was 3 % of control; the T/C (dose: 2.0 mg/kg/injection, schedule: Q04DX003 (ip), vehicle: Klucel (hydroxypropylcellulose) (HPC)) is -26 % of control.
In the case of `NC(=O)c1ncn(C2OC(CO)C(O)C2O)c1O` (centres undefined), the T/C (dose: 300.0 mg/kg/injection, schedule: Q04DX003 (sc), vehicle: Klucel (hydroxypropylcellulose) (HPC)) was 73 % of control; the T/C (dose: 600.0 mg/kg/injection, schedule: Q04DX003 (sc), vehicle: Klucel (hydroxypropylcellulose) (HPC)) is 95 % of control; the T/C (dose: 1200.0 mg/kg/injection, schedule: Q04DX003 (sc), vehicle: Klucel (hydroxypropylcellulose) (HPC)) was 98 % of control.
For the compound `CN1CCN(c2ccc([N+](=O)[O-])c3no[n+]([O-])c23)CC1`, the T/C by setting is: (dose: 20.0 mg/kg/injection, schedule: Q01DX010 (sc), vehicle: saline with Tween-80) 45 % of control; (dose: 40.0 mg/kg/injection, schedule: Q01DX010 (sc), vehicle: saline with Tween-80) 69 % of control.
